This is an account of results in patent publication US20230089867A1, “CYCLIC PENTAMER COMPOUNDS AS PROPROTEIN CONVERTASE SUBTILISIN/KEXIN TYPE 9 (PCSK9) INHIBITORS FOR THE TREATMENT OF METABOLIC DISORDER” (Novartis AG, priority 2018, published 2023).

In the experiment the target is human PCSK9 (Homo sapiens, UniProt Q8NBP7). Kind of experiment: PCSK9 ligand binding TR-FRET assay (interference with binding of human PCSK9 to human LDLR). The note with it: for Max % inhibition: PCSK9 FRET assay, efficacy (Amax), 100% = 1 uM unlabeled human PCSK9, 0% = DMSO; for IC50: TR-FRET, human PCSK9 Alexa Fluor 647 / human LDLR extracellular domain-Europium Kryptate, read-out: PCSK9 FRET Assay IC50. In a few lines:
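Threefold compound dilutions were pre-incubated 30 min with PCSK9, after which 4 nM Europium Kryptate-tagged human LDLR ectodomain was added for a further 2 h.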
A general note: In TR-FRET formats the signal depends on donor and acceptor labels being close together.

human PCSK9, sequence (Q8NBP7 153-692): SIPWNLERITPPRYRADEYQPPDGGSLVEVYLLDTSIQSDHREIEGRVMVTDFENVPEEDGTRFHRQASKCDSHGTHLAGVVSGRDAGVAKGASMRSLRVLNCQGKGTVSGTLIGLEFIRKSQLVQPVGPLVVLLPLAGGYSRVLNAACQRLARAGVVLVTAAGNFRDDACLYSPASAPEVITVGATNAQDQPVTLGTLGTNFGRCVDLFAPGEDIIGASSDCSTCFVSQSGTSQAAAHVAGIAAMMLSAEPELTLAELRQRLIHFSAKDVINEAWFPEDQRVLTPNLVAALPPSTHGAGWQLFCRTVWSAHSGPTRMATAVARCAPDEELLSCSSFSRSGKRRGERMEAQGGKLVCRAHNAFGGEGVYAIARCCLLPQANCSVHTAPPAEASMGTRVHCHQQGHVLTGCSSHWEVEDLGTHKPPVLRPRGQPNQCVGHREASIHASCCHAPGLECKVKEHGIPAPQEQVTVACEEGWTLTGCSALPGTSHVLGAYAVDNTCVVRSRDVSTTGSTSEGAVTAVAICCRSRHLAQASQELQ
human PCSK9, sequence (Q8NBP7 31-152 partner limits assumed): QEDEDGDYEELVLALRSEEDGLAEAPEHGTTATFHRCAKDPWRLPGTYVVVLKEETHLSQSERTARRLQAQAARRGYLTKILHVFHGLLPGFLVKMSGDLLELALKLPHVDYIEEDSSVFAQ

As a reminder, the IC50 is the concentration needed to halve the response being measured. `COC[C@@H]1NC(=O)[C@H](C)N(Cc2c(C)cccc2Oc2ccc(-c3cnc(CN(C)C)n3C)cc2)C(=O)C[C@@H](Cc2ccccc2)C(=O)N(C)[C@@H](C)CNC(=O)C[C@H](Cc2ccc(Cl)cc2)N(C)C1=O` [Compound 88, (2S,5S,8S,13S,16R)-16-benzyl-8-(4-chlorobenzyl)-1-(2-(4-(2-((dimethylamino)methyl)-1-methyl-1H-imidazol-5-yl)phenoxy)-6-methylbenzyl)-5-(methoxymethyl)-2,7,13,14-tetramethyl-1,4,7,11,14-pentaazacyclooctadecane-3,6,10,15,18-pentaone]: the Max % inhibition is given as 90.30% and the half-maximal inhibitory concentration (IC50) was found to be 40.1 nM.

As for `COC[C@@H]1NC(=O)[C@H](C)N(Cc2ccc(Cl)cc2Oc2ccc(-c3cnc(CN(C)C)n3C)cc2)C(=O)C[C@@H](CC#N)C(=O)N(C)[C@H]2CCCC[C@@H]2NC(=O)C[C@H](Cc2ccc(Cl)cc2)N(C)C1=O` [Compound 89, 2-((4S,7S,10S,14R,16aS,20aS)-11-(4-chloro-2-(4-(2-((dimethylamino)methyl)-1-methyl-1H-imidazol-5-yl)phenoxy)benzyl)-4-(4-chlorobenzyl)-7-(methoxymethyl)-5,10,16-trimethyl-2,6,9,12,15-pentaoxodocosahydrobenzo[l][1,4,7,11,14]pentaazacyclooctadecin-14-yl)acetonitrile], the Max % inhibition is 85.89% and the IC50 came to 1.6 nM.

`COC[C@@H]1NC(=O)[C@H](CCCN(C)C)N(Cc2ccc(Cl)cc2Oc2ccc(-c3cnc(CN(C)C)n3C)cc2)C(=O)C[C@@H](Cc2ccccc2)C(=O)N(C)[C@@H](C)[C@H](C)NC(=O)C[C@H](Cc2ccc(Cl)cc2)N(C)C1=O` [Compound 90, (2S,5S,8S,12S,13S,16R)-16-benzyl-1-(4-chloro-2-(4-(2-((dimethylamino)methyl)-1-methyl-1H-imidazol-5-yl)phenoxy)benzyl)-8-(4-chlorobenzyl)-2-(3-(dimethylamino)propyl)-5-(methoxymethyl)-7,12,13,14-tetramethyl-1,4,7,11,14-pentaazacyclooctadecane-3,6,10,15,18-pentaone]: the Max % inhibition came to 101.52% and the IC50 worked out at 2.1 nM.

With `COC[C@@H]1NC(=O)[C@@H](CCN(C)C)N(Cc2ccc(Cl)cc2Oc2ccc(-c3cnc(CN(C)C)n3C)cc2)C(=O)C[C@@H](Cc2ccccn2)C(=O)N(C)[C@H]2CCCC[C@@H]2NC(=O)C[C@H](Cc2ccc(Cl)cc2)N(C)C1=O` [Compound 91, (4S,7S,10R,14R,16aS,20aS)-11-(4-chloro-2-(4-(2-((dimethylamino)methyl)-1-methyl-1H-imidazol-5-yl)phenoxy)benzyl)-4-(4-chlorobenzyl)-10-(2-(dimethylamino)ethyl)-7-(methoxymethyl)-5,16-dimethyl-14-(pyridin-2-ylmethyl)hexadecahydrobenzo[l][1,4,7,11,14]pentaazacyclooctadecine-2,6,9,12,15(3H)-pentaone], the Max % inhibition turned out to be 86.95% and the IC50 is 168 nM.

For the molecule `COC[C@@H]1NC(=O)[C@H](C)N(Cc2ccc(Cl)cc2Oc2ccc(-c3cnc(OC(C)C)n3C)cc2)C(=O)C[C@@H](Cc2ccccc2)C(=O)N(C)[C@@H](C)CNC(=O)C[C@H](Cc2ccc(Cl)cc2)N(C)C1=O` [Compound 92, (2S,5S,8S,13S,16R)-16-benzyl-1-(4-chloro-2-(4-(2-isopropoxy-1-methyl-1H-imidazol-5-yl)phenoxy)benzyl)-8-(4-chlorobenzyl)-5-(methoxymethyl)-2,7,13,14-tetramethyl-1,4,7,11,14-pentaazacyclooctadecane-3,6,10,15,18-pentaone], the Max % inhibition is reported as 61.54% and the IC50 is 64.6 nM.

In the case of `COC[C@@H]1NC(=O)[C@H](CCC(=O)N2CCOCC2)N(Cc2ccc(Cl)cc2Oc2ccc(-c3cnc(CN(C)C)n3C)cc2)C(=O)C[C@@H](Cc2ccccc2)C(=O)N(C)[C@H]2CCCC[C@@H]2NC(=O)C[C@H](Cc2ccc(Cl)cc2)N(C)C1=O` [Compound 93, (4S,7S,10S,14R,16aS,20aS)-14-benzyl-11-(4-chloro-2-(4-(2-((dimethylamino)methyl)-1-methyl-1H-imidazol-5-yl)phenoxy)benzyl)-4-(4-chlorobenzyl)-7-(methoxymethyl)-5,16-dimethyl-10-(3-morpholino-3-oxopropyl)hexadecahydrobenzo[l][1,4,7,11,14]pentaazacyclooctadecine-2,6,9,12,15(3H)-pentaone], the Max % inhibition was 96.70% and the IC50 stood at 6.3 nM.

For the molecule `COC[C@@H]1NC(=O)[C@H](CCN2CCOCC2)N(Cc2ccc(Cl)cc2Oc2ccc(-c3cnc(CN(C)C)n3C)cc2)C(=O)C[C@@H](Cc2ccccc2)C(=O)N(C)[C@@H](C)[C@H](C)NC(=O)C[C@H](Cc2ccc(Cl)cc2)N(C)C1=O` [Compound 94, (2S,5S,8S,12S,13S,16R)-16-benzyl-1-(4-chloro-2-(4-(2-((dimethylamino)methyl)-1-methyl-1H-imidazol-5-yl)phenoxy)benzyl)-8-(4-chlorobenzyl)-5-(methoxymethyl)-7,12,13,14-tetramethyl-2-(2-morpholinoethyl)-1,4,7,11,14-pentaazacyclooctadecane-3,6,10,15,18-pentaone], the Max % inhibition was found to be 104.90% and the IC50 stood at 2.4 nM.

As to `COC[C@@H]1NC(=O)[C@H](CCC(=O)N2CC3(COC3)C2)N(Cc2ccc(Cl)cc2Oc2ccc(-c3cnc(CN(C)C)n3C)cc2)C(=O)C[C@@H](Cc2ccccc2)C(=O)N(C)[C@@H](C)CNC(=O)C[C@H](Cc2ccc(Cl)cc2)N(C)C1=O` [Compound 95, (2S,5S,8S,13S,16R)-16-benzyl-1-(4-chloro-2-(4-(2-((dimethylamino)methyl)-1-methyl-1H-imidazol-5-yl)phenoxy)benzyl)-8-(4-chlorobenzyl)-5-(methoxymethyl)-7,13,14-trimethyl-2-(3-oxo-3-(2-oxa-6-azaspiro[3.3]heptan-6-yl)propyl)-1,4,7,11,14-pentaazacyclooctadecane-3,6,10,15,18-pentaone], the Max % inhibition amounted to 104.58% and the IC50 is 0.8 nM.

`COC[C@@H]1NC(=O)[C@H](C)N(Cc2ccc(Cl)cc2Oc2ccc(-c3cnc(CN(C)C)n3C)cc2)C(=O)C[C@@H](CC(F)=C(F)F)C(=O)N(C)[C@H]2CCCC[C@@H]2NC(=O)C[C@H](Cc2ccc(Cl)cc2)N(C)C1=O` [Compound 96, (4S,7S,10S,14S,16aS,20aS)-11-(4-chloro-2-(4-(2-((dimethylamino)methyl)-1-methyl-1H-imidazol-5-yl)phenoxy)benzyl)-4-(4-chlorobenzyl)-7-(methoxymethyl)-5,10,16-trimethyl-14-(2,3,3-trifluoroallyl)hexadecahydrobenzo[l][1,4,7,11,14]pentaazacyclooctadecine-2,6,9,12,15(3H)-pentaone]: the Max % inhibition is on record as 78.14% and the IC50 came out at 304 nM.

Regarding `COC[C@@H]1NC(=O)[C@H](CC(F)F)N(Cc2ccc(Cl)cc2Oc2ccc(-c3cnc(CN4CCCC4)n3C)cc2)C(=O)C[C@@H](Cc2ccccc2)C(=O)N(C)[C@@H](C)CNC(=O)C[C@H](Cc2ccc(Cl)cc2)N(C)C1=O` [Compound 97, (2S,5S,8S,13S,16R)-16-benzyl-1-(4-chloro-2-(4-(1-methyl-2-(pyrrolidin-1-ylmethyl)-1H-imidazol-5-yl)phenoxy)benzyl)-8-(4-chlorobenzyl)-2-(2,2-difluoroethyl)-5-(methoxymethyl)-7,13,14-trimethyl-1,4,7,11,14-pentaazacyclooctadecane-3,6,10,15,18-pentaone], the Max % inhibition is given as 90.83% and the IC50 stood at 2.2 nM.
